In patent publication US20020065227A1, “Charged compounds comprising a nucleic acid binding moiety and uses therefor” (priority 2000, published 2002):
In brackets after ≈: the same amount, converted by molar mass. Read-outs that look alike come from different tables or passages of the source.

Legend:
[1] = test system: Streptococcus pneumoniae (49619); test: MIC, NCCLS broth microdilution; format: cell-based
[2] = test system: Staphylococcus aureus (29213); test: MIC, NCCLS broth microdilution; format: cell-based
[3] = test system: Enterococcus faecium (51559) (vacomycin resistant); test: MIC, NCCLS broth microdilution; format: cell-based
[4] = test system: Clostridium perfringens (13124); test: microbe, parasite or virus in culture; format: cell-based
[5] = test system: Candida parapsilosis (10232); test: MIC, antifungal assay; format: cell-based
Candida albicans (90028) [6] = test: MIC, antifungal assay; format: cell-based
Bacillus subtilis (6633) = test: MIC, NCCLS broth microdilution; format: cell-based
Esherichia coli (25922) = test: MIC, NCCLS broth microdilution; format: cell-based, Escherichia coli
[7] = test system: Candida albicans (38247) (Polyene resistant); test: MIC, antifungal assay; format: cell-based
[8] = test system: Enterococcus faecalis (29212); test: MIC, NCCLS broth microdilution; format: cell-based
[9] = test system: Streptococcus pyogenes (49339); test: MIC, NCCLS broth microdilution; format: cell-based
[10] = test system: Staphylococcus aureus (33591) (methicillin resistant); test: MIC, NCCLS broth microdilution; format: cell-based
Bacillus cereus (11778) [11] = test: MIC, NCCLS broth microdilution; format: cell-based
[12] = test system: Candida tropicalis (13803); test: MIC, antifungal assay; format: cell-based
[13] = test system: Peptostreptococcus asaccharolytics (29743); test: MIC, NCCLS broth microdilution; format: cell-based; settings: anaerobe
[14] = test system: Corynebacterium Group A (49676); test: MIC, NCCLS broth microdilution; format: cell-based
[15] = test system: Pseudomona aeruginosa (27853); test: MIC, NCCLS broth microdilution; format: cell-based
[16] = test system: Cryptococcus neoformans (90112); test: MIC, antifungal assay; format: cell-based
[17] = test system: Propionibacterium acnes (33179); test: MIC, NCCLS broth microdilution; format: cell-based; settings: anaerobe
Micrococcus luteus (381) = test: MIC, NCCLS broth microdilution; format: cell-based
[18] = test system: Staphylococcus epidermidis (12228); test: MIC, NCCLS broth microdilution; format: cell-based
[19] = test system: different species of bacteria and fungi; settings: in words
[20] = test system: dsDNA restriction fragment; test: dsDNA binding, DNase I footprinting on restriction fragment; settings: in words
AATACT = test: DNase I footprint titration, AATACT site; format: binding; settings: equilibrium association constant Ka; pH 7.0, 22° C.
AGTACT = test: DNase I footprint titration, AGTACT site; format: binding; settings: equilibrium association constant Ka; pH 7.0, 22° C.
ACTACT = test: DNase I footprint titration, ACTACT site; format: binding; settings: equilibrium association constant Ka; pH 7.0, 22° C.
ATTACT = test: DNase I footprint titration, ATTACT site; format: binding; settings: equilibrium association constant Ka; pH 7.0, 22° C.
[21] = test system: Haemophilus influenzae (49247); test: MIC, NCCLS broth microdilution; format: cell-based
TGGTCA = settings: equilibrium association constant Ka; pH 7.0, 22° C.
Candida albicans (90028) [22] = test: MBC according to NCCLS guideline; format: cell-based
[23] = test system: Listeria monocytogenes (19115); test: MIC, NCCLS broth microdilution; format: cell-based
[24] = test system: Staphylococcus aureus (29213); test: MBC according to NCCLS guideline; format: cell-based
Fusarium solani (36031) = test: MIC, antifungal assay; format: cell-based
[25] = test system: Enterococcus faecalis (29212); test: MBC according to NCCLS guideline; format: cell-based
Bacillus anthracis = format: cell-based
[26] = test system: Aspergillus niger (10535); test: MIC, antifungal assay; format: cell-based
[27] = test system: Trichophyto tonsurans (28942); test: MIC, antifungal assay; format: cell-based
Bacillus cereus (11778) [28] = test: MBC according to NCCLS guideline; format: cell-based
[29] = test system: Streptococcus pneumoniae (49619); test: MBC according to NCCLS guideline; format: cell-based
[30] = test system: Saccharomyces cerevisiae (44773); test: MBC according to NCCLS guideline; format: cell-based
all species tested = test: Microbicidal activity (MIC versus MBC), all species tested; format: cell-based; settings: in words; from difference between MICs and MBCs
Excerpt: The minimal bactericidal concentration (MBC) has been determined for some of these designed compounds according to NCCLS guideline (Lorian, V. 1996 Antibiotics in laboratory medicine (The Williams & Wilkins Co., Baltimore, Md.)). The difference between the MICs and the MBCs has been established as an index of the bactericidal activity of an antibiotic.

[31] = test system: Saccharomyces cerevisiae (44773); test: MIC, antifungal assay; format: cell-based
[32] = test system: Paecilomyces variotii (22319); test: MIC, antifungal assay; format: cell-based
[33] = test system: Streptococcus pneumoniae (51422) (multiple drug resistant); test: MIC, NCCLS broth microdilution; format: cell-based
[34] = Streptococcus pneumoniae (49619)
[35] = Enterococcus faecium (51559), vancomycin resistant
[36] = Streptococcus pyogenes (49339), Table Ia: Streptococcus Group A(49339)
[37] = Staphylococcus aureus (33591), methicillin resistant (MRSA)
[38] = Corynebacterium Group A (49676)
[39] = Staphylococcus epidermidis (12228)

Cn1cc(NC(=O)c2cc(NC(=O)c3cc(NC=O)cn3C)cn2C)cc1C(=O)NCCC(=N)N [Distamycin, distamycin, reference compound]
MIC [1, 34]: 16 µg/mL (≈ 33.2 µM) | MIC ([2]; Staphylococcus aureus (29213)): 32 µg/mL (≈ 66.5 µM) | MIC [3, 35]: 128 µg/mL (≈ 266 µM) | MIC [4]: 8 µg/mL (≈ 16.6 µM) | MIC ([5]; Candida parapsilosis (10232)): >128 µg/mL | MIC (Candida albicans (90028) [6]): >128 µg/mL | MIC (Bacillus subtilis (6633); Bacillus subtilis (6633)): 64 to 128 µg/mL | MIC (Esherichia coli (25922); Escherichia coli (25922)): >128 µg/mL | MIC [7]: >128 µg/mL | MIC ([8]; Enterococcus faecalis (29212)): 16 to 32 µg/mL | MIC [9, 36]: 32 µg/mL (≈ 66.5 µM) | MIC [10, 37]: 16 µg/mL (≈ 33.2 µM) | MIC (Bacillus cereus (11778) [11]; Bacillus cereus (11778)): 8 µg/mL (≈ 16.6 µM) | MIC ([12]; Candida tropicalis (13803)): >128 µg/mL | MIC [13]: 8 µg/mL (≈ 16.6 µM) | MIC [14, 38]: 16 µg/mL (≈ 33.2 µM) | MIC ([15]; Pseudomona aeruginosa (27853)): >128 µg/mL | MIC ([16]; Cryptococcus neoformans (90112)): >128 µg/mL | MIC [17]: 16 µg/mL (≈ 33.2 µM) | MIC (Micrococcus luteus (381)): 32 µg/mL (≈ 66.5 µM) | MIC [18, 39]: 64 µg/mL (≈ 133 µM)

CN(C)CCCNC(=O)CCNC(=O)c1cc(NC(=O)c2cc(NC(=O)c3nsc(Cl)c3Cl)cn2C)cn1C [V-cc]
Anti-pathogenic properties [19]: significant anti-pathogenic properties | dsDNA binding [20]: good binder for dsDNA

CN(C)CCCNC(=O)CCNC(=O)c1cc(NC(=O)c2cc(NC(=O)c3cc(NC(=O)c4nc(NC(=O)CCCNC(=O)c5cc(NC(=O)c6cc(NC(=O)c7nsc(Cl)c7Cl)cn6C)cn5C)cn4C)cn3C)cn2C)cn1C [VI-c]
Binding Constant, sequence AATACT (AATACT): 1e+09 M⁻¹ | Sequence preference of binding [20]: bind ATTACT, and AATACT preferentially to ACTACT and AGTACT | Binding Constant, sequence AGTACT (AGTACT): 2e+08 M⁻¹ | Binding Constant, sequence ACTACT (ACTACT): 1e+08 M⁻¹ | Binding Constant, sequence ATTACT (ATTACT): 1e+10 M⁻¹

Cn1cc(NC(=O)c2cc(NC(=O)CN=C(N)N)cn2C)cc1C(=O)NCCC(=N)N [Netropsin, netropsin, reference compound]
MIC ([1]; Streptococcus pneumoniae): 0.125 µg/mL (≈ 0.29 µM) | MIC ([2]; Staphylococcus aureus): 4 µg/mL (≈ 9.29 µM) | MIC ([3]; Enterococcus faecium): 8 µg/mL (≈ 18.6 µM) | MIC ([21]; Haemophilus influenzae): 4 µg/mL (≈ 9.29 µM) | MIC ([5]; Lodderomyces parapsilosis): 16 µg/mL (≈ 37.2 µM) | MIC (Bacillus subtilis (6633); Bacillus subtilis): 4 µg/mL (≈ 9.29 µM) | MIC (Esherichia coli (25922); Escherichia coli): 2 µg/mL (≈ 4.65 µM) | MIC ([8]; Enterococcus faecalis): 2 µg/mL (≈ 4.65 µM) | MIC ([9]; Streptococcus pyogenes): 8 µg/mL (≈ 18.6 µM) | MIC ([10]; Staphylococcus aureus, MRSA): 4 µg/mL (≈ 9.29 µM) | MIC (Bacillus cereus (11778) [11]; Bacillus cereus): 2 µg/mL (≈ 4.65 µM) | MIC ([12]; Candida tropicalis): 16 µg/mL (≈ 37.2 µM) | MIC ([14]; Corynebacterium): 0.5 µg/mL (≈ 1.16 µM) | MIC [15]: > 128 µg/mL | MIC ([16]; Cryptococcus neoformans): 4 µg/mL (≈ 9.29 µM) | MIC ([18]; Staphylococcus epidermidis): 2 to 4 µg/mL (≈ 4.65 to 9.29 µM)

CN(C)CCCNC(=O)CCNC(=O)c1cc(NC(=O)c2cc(NC(=O)c3cc(NC(=O)c4cc(NC(=O)c5nsc(Cl)c5Cl)cn4C)cn3C)cn2C)cn1C [V-t]
Binding Constant, sequence AATACT (AATACT): 2e+08 M⁻¹ | Binding Constant, sequence AGTACT (AGTACT): 2e+08 M⁻¹ | Binding Constant, sequence ACTACT (ACTACT): 2e+08 M⁻¹ | Binding Constant, sequence TGGTCA (TGGTCA): 1e+10 M⁻¹ | Binding Constant, sequence ATTACT (ATTACT): 2e+08 M⁻¹

CN(C)CCCNC(=O)c1cc(NC(=O)c2cc(NC(=O)c3cc(NC(=O)c4nsc(NCCCN)c4Cl)cn3C)cn2C)cn1C [V-b]
MIC [1, 34]: 0.5 µg/mL (≈ 0.729 µM) | MIC ([2]; Staphylococcus aureus (29213)): 2 µg/mL (≈ 2.91 µM) | MIC [3, 35]: 2 to 4 µg/mL | MIC ([4]; Clostridium perfringens (13124), anaerobe): 1 µg/mL (≈ 1.46 µM) | MBC (Candida albicans (90028) [22]): 4 µg/mL (≈ 5.83 µM) | MIC ([21]; Haemophilus influenzae (49247)): 32 µg/mL (≈ 46.6 µM) | MIC [23]: 8 µg/mL (≈ 11.7 µM) | MBC [24]: 4 µg/mL (≈ 5.83 µM) | MIC (Candida albicans (90028) [6]): 4 µg/mL (≈ 5.83 µM) | MIC (Bacillus subtilis (6633); Bacillus subtilis (6633)): 0.5 to 1 µg/mL | Binding Constant, sequence AATACT (AATACT): 1e+08 M⁻¹ | MIC (Fusarium solani (36031)): 4 to 8 µg/mL | MBC [25]: >4 µg/mL | MIC (Esherichia coli (25922); Escherichia coli (25922)): >128 µg/mL | Binding Constant, sequence AGTACT (AGTACT): 3e+09 M⁻¹ | MIC (Bacillus anthracis): 32 µg/mL (≈ 46.6 µM) | Binding Constant, sequence ACTACT (ACTACT): 2e+08 M⁻¹ | MIC [26]: 4 µg/mL (≈ 5.83 µM) | MIC ([8]; Enterococcus faecalis (29212)): 1 µg/mL (≈ 1.46 µM) | MIC [27]: 16 µg/mL (≈ 23.3 µM) | MBC (Bacillus cereus (11778) [28]): 0.5 µg/mL (≈ 0.729 µM) | MIC [9, 36]: 0.25 µg/mL (≈ 0.364 µM) | MBC [29]: 0.5 µg/mL (≈ 0.729 µM) | MBC [30]: 16 µg/mL (≈ 23.3 µM) | MIC [10, 37]: 4 µg/mL (≈ 5.83 µM) | MIC (Bacillus cereus (11778) [11]; Bacillus cereus (11778)): 0.5 µg/mL (≈ 0.729 µM) | Microbicidal activity (all species tested): microbicidal agents for all species tested | MIC [31]: 16 µg/mL (≈ 23.3 µM) | MIC [13]: 0.125 µg/mL (≈ 0.182 µM) | MIC [14, 38]: 0.5 µg/mL (≈ 0.729 µM) | MIC [32]: 0.5 µg/mL (≈ 0.729 µM) | MIC ([15]; Pseudomona aeruginosa (27853)): >128 µg/mL | MIC [17]: 4 µg/mL (≈ 5.83 µM) | MIC [33]: 1 µg/mL (≈ 1.46 µM) | Binding Constant, sequence ATTACT (ATTACT): 1e+08 M⁻¹ | MIC [18, 39]: 2 µg/mL (≈ 2.91 µM)
